Holding throughout (details): Compound concentration 10.0 uM
Assay [1] addresses Alpha-2B adrenergic receptor (Homo sapiens) (UniProt P18089).
Assay [2] deals with Muscarinic acetylcholine receptor M4 (Homo sapiens) (UniProt P08173).
For assay [3], the target named is T1, Alpha-2A adrenergic receptor (Homo sapiens) (UniProt P08913).
T1 sequence (whole entry): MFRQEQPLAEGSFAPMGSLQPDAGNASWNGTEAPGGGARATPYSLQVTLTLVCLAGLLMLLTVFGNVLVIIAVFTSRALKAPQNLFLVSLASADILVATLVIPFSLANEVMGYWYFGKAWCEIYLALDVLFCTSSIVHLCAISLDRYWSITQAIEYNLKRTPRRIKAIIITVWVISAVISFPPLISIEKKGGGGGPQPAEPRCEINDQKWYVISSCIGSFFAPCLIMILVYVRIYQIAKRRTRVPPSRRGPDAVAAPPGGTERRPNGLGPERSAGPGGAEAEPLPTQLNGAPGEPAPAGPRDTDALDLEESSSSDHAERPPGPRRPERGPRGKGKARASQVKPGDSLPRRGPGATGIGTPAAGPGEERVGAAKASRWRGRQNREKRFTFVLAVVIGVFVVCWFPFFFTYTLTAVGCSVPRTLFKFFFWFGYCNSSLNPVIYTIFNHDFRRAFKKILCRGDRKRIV
Description: alpha2A Eurofins-Panlabs ligand profiling.

The record followed here is ChEMBL document CHEMBL4507301 (2021).

Chain of Alpha-2B adrenergic receptor (Homo sapiens) (P18089 whole entry): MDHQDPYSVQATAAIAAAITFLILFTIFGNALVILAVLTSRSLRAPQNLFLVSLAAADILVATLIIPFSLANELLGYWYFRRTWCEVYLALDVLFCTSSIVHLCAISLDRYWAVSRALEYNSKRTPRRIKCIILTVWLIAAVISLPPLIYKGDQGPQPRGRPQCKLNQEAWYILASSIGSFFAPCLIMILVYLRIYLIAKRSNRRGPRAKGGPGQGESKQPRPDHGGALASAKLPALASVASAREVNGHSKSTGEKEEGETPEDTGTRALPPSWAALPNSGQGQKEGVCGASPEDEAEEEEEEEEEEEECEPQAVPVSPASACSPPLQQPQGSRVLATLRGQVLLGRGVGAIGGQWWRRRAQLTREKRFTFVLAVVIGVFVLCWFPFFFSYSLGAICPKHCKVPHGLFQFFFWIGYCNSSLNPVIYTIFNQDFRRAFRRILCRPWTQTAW
Chain of Muscarinic acetylcholine receptor M4 (Homo sapiens) (P08173 whole entry): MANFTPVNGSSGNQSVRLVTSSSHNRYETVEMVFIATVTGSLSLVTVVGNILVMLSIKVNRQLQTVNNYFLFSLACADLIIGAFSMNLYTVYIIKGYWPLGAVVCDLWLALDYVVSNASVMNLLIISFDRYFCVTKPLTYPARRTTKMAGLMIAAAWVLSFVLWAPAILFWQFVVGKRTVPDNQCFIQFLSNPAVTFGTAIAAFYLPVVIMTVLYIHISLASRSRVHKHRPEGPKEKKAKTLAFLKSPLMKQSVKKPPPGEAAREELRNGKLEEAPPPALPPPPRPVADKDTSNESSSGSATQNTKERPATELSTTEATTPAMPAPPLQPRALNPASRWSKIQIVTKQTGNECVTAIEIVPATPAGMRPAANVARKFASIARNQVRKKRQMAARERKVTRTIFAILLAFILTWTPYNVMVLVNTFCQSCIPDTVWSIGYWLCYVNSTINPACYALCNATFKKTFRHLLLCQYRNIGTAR

For the molecule `C[C@@H](c1cccc(C#N)c1)n1cc(Cl)cc(C(N)=O)c1=N` [(S)-9s], the inhibition in assay [1] was 0.7%; in assay [2] it was -6.48%. In the case of `C[C@H](c1cccc(C#N)c1)n1cc(Cl)cc(C(N)=O)c1=N` [(R)-9s], in assay [3], the inhibition was 5%.

In general, inhibition refers to the relative decrease from the control value, in per cent.
